{"source": "paper PMC7473772", "about": "(eLife, 2020)", "key": {"[1]": {"system": "tbaqp2/tbaqp3 null cells expressing TbAQP2^S131P/S263A", "format": "cell-based, Trypanosoma brucei brucei"}, "[2]": {"system": "tbaqp2/tbaqp3 null cells expressing TbAQP2^I110W", "format": "cell-based, Trypanosoma brucei brucei"}, "[3]": {"system": "tbaqp2/tbaqp3 null cells expressing TbAQP2^L264R", "format": "cell-based, Trypanosoma brucei brucei"}, "[4]": {"system": "tbaqp2/tbaqp3 null cells expressing TbAQP2^I190T", "format": "cell-based, Trypanosoma brucei brucei"}, "[5]": {"system": "tbaqp2/tbaqp3 null cells expressing TbAQP2 L218M", "assay": "microbe, parasite or virus in culture", "format": "cell-based, Trypanosoma brucei brucei", "conditions": "Trypanosoma brucei"}, "[6]": {"system": "tbaqp2 null (AQP2-KO)", "assay": "Drug sensitivity assay (resazurin)", "format": "cell-based", "conditions": "Trypanosoma brucei, read-out: EC50 AQP2-KO AVG, AQP2-KO / tbaqp2 null; 48 h drug + 24 h resazurin"}, "[7]": {"system": "tbaqp1-2-3 null cells", "assay": "Drug sensitivity assay (resazurin), pentamidine and SHAM", "format": "cell-based, Trypanosoma brucei brucei", "conditions": "KO AQP1-3"}, "[8]": {"biological_target": "T1, TbAQP2^I190T (Trypanosoma brucei brucei, UniProt Q6ZXT3, I190T)", "T1 sequence (Q6ZXT3 1-312 I190T)": "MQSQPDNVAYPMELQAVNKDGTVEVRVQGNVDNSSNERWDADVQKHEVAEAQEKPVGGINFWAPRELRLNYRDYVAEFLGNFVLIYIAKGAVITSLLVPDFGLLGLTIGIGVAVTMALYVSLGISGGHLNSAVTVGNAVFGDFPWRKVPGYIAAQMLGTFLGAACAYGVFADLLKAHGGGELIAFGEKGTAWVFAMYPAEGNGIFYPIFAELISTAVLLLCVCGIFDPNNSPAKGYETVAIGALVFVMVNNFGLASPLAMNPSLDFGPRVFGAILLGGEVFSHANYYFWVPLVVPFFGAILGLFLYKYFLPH", "assay": "cell-based"}, "[9]": {"system": "TbAQP2^I190T", "assay": "cell-based", "parameters": "species or system Trypanosoma brucei brucei", "conditions": "TbAQP2^I190T cells; read-out: Km of lower affinity segment (LAPT1)"}, "[10]": {"biological_target": "TbAQP2^I190T/W192G (Trypanosoma brucei brucei, UniProt Q6ZXT3, I190T/W192G)", "sequence (Q6ZXT3 whole entry I190T/W192G)": "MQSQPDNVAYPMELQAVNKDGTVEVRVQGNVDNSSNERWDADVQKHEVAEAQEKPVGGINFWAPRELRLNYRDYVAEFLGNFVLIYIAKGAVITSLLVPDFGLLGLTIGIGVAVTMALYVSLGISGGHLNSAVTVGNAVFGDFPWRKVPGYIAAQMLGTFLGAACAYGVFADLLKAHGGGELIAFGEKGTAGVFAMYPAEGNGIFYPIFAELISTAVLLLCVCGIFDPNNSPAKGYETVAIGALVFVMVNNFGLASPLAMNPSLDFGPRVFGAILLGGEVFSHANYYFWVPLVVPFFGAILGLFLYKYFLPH", "format": "cell-based", "conditions": "Fig. 3A, exp AQP016-AQP023; AQP2 mutant I190T/W192G"}, "[11]": {"biological_target": "TbAQP2 L118W (Trypanosoma brucei brucei, UniProt Q6ZXT3, L118W)", "sequence (Q6ZXT3 whole entry L118W)": "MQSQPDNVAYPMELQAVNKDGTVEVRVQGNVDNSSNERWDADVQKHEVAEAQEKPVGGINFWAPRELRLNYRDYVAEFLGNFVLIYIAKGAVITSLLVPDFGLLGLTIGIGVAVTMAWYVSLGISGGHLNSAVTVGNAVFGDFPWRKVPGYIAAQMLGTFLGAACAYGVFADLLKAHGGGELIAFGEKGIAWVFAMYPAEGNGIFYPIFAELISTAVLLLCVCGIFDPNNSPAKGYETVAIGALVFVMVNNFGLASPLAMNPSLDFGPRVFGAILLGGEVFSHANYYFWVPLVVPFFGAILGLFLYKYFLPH", "assay": "[3H]-pentamidine transport", "format": "cell-based", "conditions": "AQP2 mutant L118W; n=6"}, "[12]": {"biological_target": "TbAQP2 L84M (Trypanosoma brucei brucei, UniProt Q6ZXT3, L84M)", "sequence (Q6ZXT3 whole entry L84M)": "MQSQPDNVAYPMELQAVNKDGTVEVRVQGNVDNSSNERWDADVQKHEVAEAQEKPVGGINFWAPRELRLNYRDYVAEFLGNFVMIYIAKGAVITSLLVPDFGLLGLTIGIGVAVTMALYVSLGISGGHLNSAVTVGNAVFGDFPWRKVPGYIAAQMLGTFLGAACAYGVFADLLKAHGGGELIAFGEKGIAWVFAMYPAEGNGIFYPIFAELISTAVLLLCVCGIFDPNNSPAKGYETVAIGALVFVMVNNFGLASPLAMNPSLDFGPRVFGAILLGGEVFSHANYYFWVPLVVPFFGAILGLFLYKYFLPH", "assay": "[3H]-pentamidine transport", "format": "cell-based", "conditions": "AQP2 mutant L84M; n=3"}, "[13]": {"biological_target": "TbAQP2 L218M (Trypanosoma brucei brucei, UniProt Q6ZXT3, L218M)", "sequence (Q6ZXT3 whole entry L218M)": "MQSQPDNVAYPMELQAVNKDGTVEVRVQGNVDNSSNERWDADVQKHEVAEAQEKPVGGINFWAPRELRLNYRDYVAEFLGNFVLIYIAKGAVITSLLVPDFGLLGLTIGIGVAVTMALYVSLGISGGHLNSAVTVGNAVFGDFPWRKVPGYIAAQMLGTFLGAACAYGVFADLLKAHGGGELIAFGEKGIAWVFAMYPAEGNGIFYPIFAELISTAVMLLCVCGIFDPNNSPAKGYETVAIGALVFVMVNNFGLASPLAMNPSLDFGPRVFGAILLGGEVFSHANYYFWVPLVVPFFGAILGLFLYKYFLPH", "assay": "[3H]-pentamidine transport", "format": "cell-based", "conditions": "AQP2 mutant L218M; n=3"}, "[14]": {"conditions": "Fig. 3A, exp AQP038-AQP041, AQP2 mutant I190T"}}, "note": "Several values for one entry are separate records, joined by “and”; a condition that tells them apart may be missing. Equal values may be shown once. Read-outs that look alike come from different tables or passages of the source."}
{"molecule": "N=C(N)c1ccc(OCCCCCOc2ccc(C(=N)N)cc2)cc1", "note": "[Pentamidine]", "values": [{"measurement": "EC50, percent of AQP2/3 null EC50", "setting": "[1]", "result": 1.92, "unit": "%"}, {"measurement": "EC50, percent of AQP2/3 null EC50", "setting": "[2]", "result": 122.13, "unit": "%"}, {"measurement": "EC50, percent of AQP2/3 null EC50", "setting": "[3]", "result": 126.58, "unit": "%"}, {"measurement": "EC50 as percent of AQP2/3 null EC50, MEAN", "setting": "[4]", "result": 6.89, "unit": "%"}, {"measurement": "EC50", "setting": "[5]; read-out: Alamar blue EC50, MEAN", "result": 0.63, "unit": "nM"}, {"measurement": "EC50", "setting": "[5]; read-out: EC50 AVG", "result": 0.63, "unit": "nM"}, {"measurement": "EC50", "setting": "[6]", "result": 130, "unit": "nM"}, {"measurement": "EC50", "setting": "[7]; read-out: Alamar blue EC50, single repeats", "result": "75.4 nM and 63.9 nM"}, {"measurement": "EC50", "setting": "[7]; Trypanosoma brucei, 3 repeats, read-out: Alamar blue EC50, MEAN", "result": 69.3, "unit": "nM"}, {"measurement": "EC50", "setting": "[7]; Trypanosoma brucei, read-out: Alamar blue EC50, single repeats", "result": 68.7, "unit": "nM"}, {"measurement": "IC50", "setting": "[8]", "result": "30.9 ± 12.2", "unit": "nM"}, {"measurement": "Pentamidine transport rate as percent of +AQP2-WT, AVG", "setting": "[8]; [14]", "result": 2.728, "unit": "%"}, {"measurement": "Pentamidine transport rate, AVG", "setting": "[8]; [14]", "result": 0.0008657, "unit": "pmol/10E7 cells/s"}, {"measurement": "Pentamidine transport rate, single experiments", "setting": "[8]; [14]", "result": "0.0007167 pmol/10E7 cells/s and 0.001156 pmol/10E7 cells/s and 0.0009528 pmol/10E7 cells/s and 0.0006372 pmol/10E7 cells/s"}, {"measurement": "Km", "setting": "[9]", "result": "59.9 ± 9.1", "unit": "µM"}, {"measurement": "Pentamidine transport rate as percent of +AQP2-WT, AVG", "setting": "[10]", "result": 2.70, "unit": "%"}, {"measurement": "Pentamidine transport rate, AVG", "setting": "[10]", "result": 0.0005659, "unit": "pmol/10E7 cells/s"}, {"measurement": "Pentamidine transport rate AVG", "setting": "[11]", "result": 0.0006283, "unit": "pmol/10E7 cells/s"}, {"measurement": "Pentamidine transport rate AVG", "setting": "[12]", "result": 0.003585, "unit": "pmol/10E7 cells/s"}, {"measurement": "Pentamidine transport rate AVG", "setting": "[13]", "result": 0.004612, "unit": "pmol/10E7 cells/s"}]}
